Data taken from patent US6991908B1, “Antiobestic agents methods for screening antiobestic agents and kits comprising same” (Takeda Chemical Industries, Ltd., priority 1998, dated 2006).
Positions of bridges follow the written chain, without caps; N, C: chain ends. No end group written: not given here.

Legend:
[1] = molecular target: T1, rat SLC-1 (Rattus norvegicus, UniProt P97639); test: cAMP synthesis inhibitory activity on rat SLC-1-expression CHO cells (forskolin-stimulated, cAMP EIA); assay type: cell-based; conditions: 2 μM forskolin
T1 construct: expressed in transfected cells; host or cells: CHO dhfr- cells, plasmid pAKK0-SLC-1, mainly clone #44
Method: The CHO/SLC-1 cells prepared in EXAMPLE 4 and mock CHO cells were inoculated on a 24-well plate in 5×10^4 cells/well. After incubation for 48 hours, the cells were washed with Hanks' balanced salt solution (pH 7.4) supplemented with 0.2 mM 3-isobutylmethylxanthine, 0.05% BSA and 20 mM HEPES (hereinafter Hanks' balanced salt solution (pH. 7.4) supplemented with 0.2 mM 3-isobutylmethylxanthine, 0.05% BSA and 20 mM HEPES is referred to as a reaction buffer). Thereafter, 0.5 ml of the reaction buffer was added to the cells, which was kept warm in the medium for 30 minutes. The reaction buffer was removed and 0.25 ml of a fresh reaction buffer was added to the cells. Then, 0.25 ml of the reaction buffer containing the HPLC fraction and 2 μM for skolin was added to the cells followed by reacting at 37° C. for 24 minutes. By adding 100 μl of 20% perchloric acid, the reaction was terminated. The reaction mixture was then allowed to stand on ice for an hour to extract intracellular cAMP. The amount of cAMP in the extract was measured using a cAMP EIA kit (Amersham Pharmacia Biotech). As a result, the cAMP synthesis inhibitory activity specific to the CHO/SLC-1 cells was detected in fractions #33, #34 and #35 (FIG. 1). In FIG. 1, taking as 100% the amount obtained by subtracting the intracellular cAMP amount when adding the reaction buffer from the intracellular cAMP amount when adding the forskolin-containing reaction buffer, the cAMP synthesis inhibitory activity was expressed by % in terms of the intracellular cAMP amount obtained by subtracting the intracellular cAMP amount when adding the reaction buffer from the intracellular cAMP amount when adding the HPLC fraction (a 1 μl aliquot of each fraction diluted to 100-fold with DMSO was added).
The CHO/SLC-1 cells selected in EXAMPLE 4 were inoculated on a 24-well plate in 5×10^4 cells/well followed by cultivation for 48 hours. […] The amount of cAMP in the extract was measured using cAMP EIA kit (Amersham Pharmacia Biotech).

[2] = molecular target: T1, rat SLC-1; test: Arachidonic acid metabolite release activity on rat SLC-1-expression CHO cells; assay type: cell-based
Method: The CHO/SLC-1 cells selected in EXAMPLE 4 were inoculated on a 24-well plate in 5×10^4 cells/well. After incubation for 24 hours, [^3H] arachidonic acid was added to each well in 0.25 μCi/well. Sixteen hours after the addition of [^3H] arachidonic acid, the cells were washed with Hanks' balanced salt solution (pH7.4) containing 0.05% BSA and 20 mM HEPES. […] Hereinafter Hanks' balanced salt solution (pH 7.4) containing 0.05% BSA and 20 mM HEPES is referred to as a reaction buffer. After incubating at 37° C. for 60 minutes, 400 μl of the reaction solution was charged in a scintillator and the amount of [^3H]arachidonic acid metabolites released into the reaction solution was measured using a scintillation counter.

[3] = molecular target: T1, rat SLC-1; test: GTPγS binding activity to rat SLC-1-expression CHO cell membrane fraction (Example 9); assay type: biochemical
Method: First, preparation of the membrane fraction is described. To 1×10^8 CHO/SLC-1 cells was added 10 ml of a homogenate buffer (10 mM NaHCO3, 5 mM EDTA, 0.5 mM PMSF, 1 μg/ml pepstatin, 4 μg/ml E64, 20 μg/ml leupeptin), followed by cell disruption with a polytron (12,000 rpm, 1 min.). The disrupted cells were then centrifuged (1,000 g, 15 mins.) to give the supernatant. Next, the supernatant was subjected to ultracentrifugation (Beckman type 30 rotor, 30,000 rpm, 1 hour). The resulting precipitate was used as a rat SLC-1-expression CHO cell membrane.
The GTPyS binding activity was assayed as follows. The rat SLC-1-expression CHO cell membrane fraction was diluted with a buffer for membrane dilution (50 mM Tris-hydrochloride buffer (pH 7.4), 5 mM MgCl2, 150 mM NaCl, 1 μM GDP) to make a cell membrane fraction solution for assay having a protein concentration of […]. […] The resulting solution mixture was kept at 25° C. for an hour. The mixture was filtrated through a filter. After washing twice with 1.5 ml of a washing buffer (50 mM Tris-hydrochloride buffer (pH 7.4), 5 mM MgCl2, 1 mM EDTA, 0.1% BSA), radioactivity of the filter was measured using a liquid scintillation counter.

[4] = molecular target: T2, human SLC-1 (Homo sapiens, UniProt Q99705); test: cAMP synthesis inhibitory activity on human SLC-1-expression CHO cells; assay type: cell-based; conditions: human SLC-1 expression cells (CHO/hSLC-1(S) or CHO/hSLC-1(L)), 2 μM forskolin
T2 construct: expressed in transfected cells; host or cells: CHO dhfr- cells, plasmid pAKK0-hSLC-1(S) or pAKK0-hSLC-1(L)
Method: The CHO/hSLC-1(S) strain or the CHO/hSLC-1(L) strain, which was human SLC-1-expression CHO cells selected in EXAMPLE 13, was inoculated on a 24-well plate in 5×10^4 cells/well followed by cultivation for 48 hours. The cells were then washed with Hanks' balanced salt solution (pH 7.4) containing 0.2 mM 3-isobutylmethylxanthine, 0.05% BSA and 20 mM HEPES (hereinafter Hanks' balanced salt solution (pH 7.4) containing 0.2 mM 3-isobutylmethylxanthine, 0.05% BSA and 20 mM HEPES is referred to as a reaction buffer). Subsequently, 0.5 ml of the reaction buffer was added to the cells, which was maintained in the medium for 30 minutes. The reaction buffer was removed and 0.25 ml of a fresh reaction buffer was added to the cells. […] By adding 100 μl of 20% perchloric acid, the reaction was terminated. Next, the reaction mixture was allowed to stand on ice for an hour to extract intracellular cAMP. The amount of cAMP in the extract was measured using cAMP EIA kit (Amersham Pharmacia Biotech).

[5] = molecular target: T2, human SLC-1; test: Arachidonic acid metabolite release activity on human SLC-1-expression CHO cells; assay type: cell-based; conditions: human SLC-1 expression cells (CHO/hSLC-1(S) or CHO/hSLC-1(L))
Method: The CHO/hSLC-1(S) strain or the CHO/hSLC-1(L) strain, which was human SLC-1-expression CHO cells selected in EXAMPLE 13, were inoculated on a 24-well plate in 5×10^4 cells/well. After incubation for 24 hours, [^3H] arachidonic acid was added in 0.25 μCi/well. Sixteen hours after the addition of [^3H] arachidonic acid, the cells were washed with Hanks' balanced salt solution (pH 7.4) containing 0.05% BSA and 20 mM HEPES. […] Hereinafter, Hanks' balanced salt solution (pH7.4) containing 0.05% BSA and 20 mM HEPES is referred to as a reaction buffer. After incubating at 37° C. for 60 minutes, 400 μl of the reaction solution was charged in a scintillator and the amount of [^3H] arachidonic acid metabolites released into the reaction solution was measured using a scintillation counter.

[6] = molecular target: T2, human SLC-1; test: GTPγS binding activity using human SLC-1-expression CHO cell membrane fraction (Example 16); assay type: biochemical
Method: A human SLC-1-expression CHO cell membrane fraction was prepared by the following procedure. Human SLC-1-expression CHO cells (1×10^8 cells) were suspended in phosphate buffered saline (pH 7.4) supplemented with 5 mM EDTA (ethylene diamine tetra acetic acid) followed by centrifugation. after 10 ml of a homogenate buffer (10 mM NaHCO3, 5 mM EDTA, pH 7.5) was added to the cell pellets, the mixture was homogenized with a polytron homogenizer. the homogenate was then centrifuged at 400×g for 15 minutes. the resulting supernatant was further centrifuged at 100,000×g for an hour to give membrane fraction precipitates. the precipitates were suspended in 2 ml of an assay buffer (50 mM Tris-HCl (pH 7.5), 1 mM EDTA, 0.1% BSA (bovine serum albumin), 10 mM MgCl2, 100 mM NaCl, 1 mM GDP (guanosine 5′-diphosphate), 0.25 mM PMSF (phenylmethylsulfonyl fluoride), 1 μg/ml pepstatin, 20 μg/ml leupeptin, 10 μg/ml phosphoramidon] and the suspension was centrifuged at 100,000×g for an hour. the cell membrane recovered as precipitates was resuspended in 20 ml of the assay buffer. after dispensing, the suspension was stored at −80° C., which may be thawed every time at use.

[7] = molecular target: T2, human SLC-1; test: Receptor binding test using [125I]-labeled MCH(4-19) and human SLC-1-expression CHO cell membrane fraction; conditions: various membrane fraction concentrations; FIG. 9
Method: The cell membrane fraction prepared from human SLC-1-expression CHO cells according to EXAMPLE 16 was diluted with an assay buffer (25 mM Tris-HCl, 1 mM EDTA (ethylene diamine tetra acetic acid), 0.1% BSA (bovine serum albumin), 0.25 mM PMSF (phenylmethylsulfonyl fluoride), 1 μg/ml pepstatin, 20 μg/ml leupeptin, 10 μg/ml phosphoramidon, pH 7.5) in various concentration.

T1 sequence (P97639 whole entry): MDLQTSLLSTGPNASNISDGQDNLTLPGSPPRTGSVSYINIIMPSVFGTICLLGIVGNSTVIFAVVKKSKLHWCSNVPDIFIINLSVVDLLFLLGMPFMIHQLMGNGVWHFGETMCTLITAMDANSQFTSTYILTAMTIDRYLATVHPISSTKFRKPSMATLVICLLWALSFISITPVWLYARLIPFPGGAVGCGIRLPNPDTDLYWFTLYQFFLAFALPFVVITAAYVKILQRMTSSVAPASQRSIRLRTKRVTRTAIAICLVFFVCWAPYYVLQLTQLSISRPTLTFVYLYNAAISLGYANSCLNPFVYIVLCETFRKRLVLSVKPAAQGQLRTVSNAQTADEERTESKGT
T2 sequence (Q99705 with tags, fused parts or gaps): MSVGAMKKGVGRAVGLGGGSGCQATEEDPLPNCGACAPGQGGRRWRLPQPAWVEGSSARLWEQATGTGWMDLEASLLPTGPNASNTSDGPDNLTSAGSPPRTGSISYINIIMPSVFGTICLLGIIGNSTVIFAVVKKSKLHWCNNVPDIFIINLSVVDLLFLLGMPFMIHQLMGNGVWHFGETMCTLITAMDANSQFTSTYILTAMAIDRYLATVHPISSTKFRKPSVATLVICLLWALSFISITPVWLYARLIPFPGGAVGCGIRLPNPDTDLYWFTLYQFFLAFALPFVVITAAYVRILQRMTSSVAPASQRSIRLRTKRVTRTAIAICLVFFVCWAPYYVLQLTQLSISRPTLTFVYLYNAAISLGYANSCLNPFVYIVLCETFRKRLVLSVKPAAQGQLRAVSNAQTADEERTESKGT

| Molecule | concentration at which the amount of intracellular cAMP was obviously reduced [1] [nM] | cAMP synthesis (production) inhibitory activity, dose dependence ([1]; FIG. 5) | cAMP synthesis (production) inhibitory activity, dose dependence ([1]; FIG. 5, listed as rat MCH) | concentration at which apparent release of arachidonic acid metabolites occurred ([2]; 37° C. 60 minutes) [nM] | arachidonic acid metabolite release, dose dependence ([2]; FIG. 6) | amount of [35S]-GTPγS bound to the membrane fraction, dose dependence [3] | EC50 ([3]; 25° C. 1 hour, read-out: concentration inducing 50% binding of [35S]-GTPγS) [nM] | amount of intracellular cAMP, dose dependence [4] | arachidonic acid metabolite release activity, dose dependence [5] | amount of [35S]-GTPγS bound, dose dependence [6] | specific binding (SB) to the cell membrane fraction [7] |
| --- | --- | --- | --- | --- | --- | --- | --- | --- | --- | --- | --- |
| CSCC[C@@H]1NC(=O)[C@@H](NC(=O)[C@H](CCCNC(=N)N)NC(=O)[C@H](CC(C)C)NC(=O)[C@H](CCSC)NC(=O)[C@H](CC(=O)O)NC(=O)[C@H](Cc2ccccc2)NC(=O)[C@@H](N)CC(=O)O)CSSC[C@@H](C(=O)N[C@@H](Cc2c[nH]c3ccccc23)C(=O)N[C@@H](CCC(N)=O)C(=O)N[C@H](C(=O)O)C(C)C)NC(=O)[C@@H]2CCCN2C(=O)[C@H](CCCNC(=N)N)NC(=O)[C@H](Cc2ccc(O)cc2)NC(=O)[C@H](C(C)C)NC(=O)[C@H](CCCNC(=N)N)NC(=O)CNC(=O)[C@H](CC(C)C)NC1=O [MCH] | 0.1 | decreased dose-dependently | showed the inhibitory activity dose-dependently | 3 | dose-dependently released | dose-dependently increased | ~0.5 | decreased dose-dependently | showed the arachidonic acid metabolite release activity dose-dependently | increased dose-dependently | – |
| [^125I]-[N-(3-(4-Hydroxy-3-iodophenyl)propionyl)-Met^4]-MC H(4-19) ({3‑(4-hydroxy-3-(125I)iodophenyl)propionyl}-MLRCMLGRVYRPCWQV; disulfide 4-13) [[^125I]-labeled MCH(4-19)] | – | – | – | – | – | – | – | – | – | – | recognized dependent on the concentration of the membrane fraction |
